# US20230293530A1, “AGENTS FOR SENSITIZING SOLID TUMORS TO TREATMENT” (Yeda Research and Development Co. Ltd., priority 2020, published 2023)
# Tests used:
# LMP-7 immunoproteasome = experiment: Western blot for LMP-7 immunoproteasome in 4T1 cells; type: cell-based, murine; details: 300 µM mizoribine, 24 hours
# Description: C) ASS1 mRNA expression levels and NDNO scores are associated with non-response to anti-PD1 therapy in non-small cell lung cancer (NSCLC) (7 responders and 14 nonresponders). D) Proteomic-based NDNO scores associate with lower hydrophobicity of peptide repertoire (Wilcoxon ranksum P<0.05) in a (CPTAC3) lung adenocarcinoma cohort. NDNO scores were used to determine the top tertile (red; n=36) and bottom tertile (blue; n=36); Proteomic NDNO scores denote the ratio of NNDO scores of the tumor vs the matched normal sample (Methods). Hydrophobicity scores were determined by R library Peptides using the metric from Janin et al^2, where the hydrophobicity of each sample’s peptide repertoire denotes the mean hydrophobicity of all its peptides (Methods). E) 4T1 breast cancer cells were treated with 300 µM mizoribine for 24 hours and analysed by western for LMP-7 immunoproteasome (Left panel). Quantification of the western is shown on the right panel. […] Tumor size was calliper-measured on the designated days (upper panel) and at sacrifice on day 14 (lower panel, p = 0.0476 using student’s t-test). […] Human IFNγ was measured using ELISA in wells containing cultured CD8+T-cells and PDX explants from two patients (Pat#1, LEP 19 and Pat#2, LEP 20) with metastatic NSCLC on responsive to anti-PD1. […]
# 4T1 breast cancer cells = experiment: DNA (whole-exome) sequencing analysis of mutational bias; type: cell-based, murine; details: 4T1 cells, 300 µM mizoribine, 24 h
# Experimental: B) The purine/pyrimidine ratio is increased upon glucose deprivation in murine breast cancer cells. 4T1 cells were grown in the absence of glucose for 24h (baseline) and 48h and quantified by liquid chromatography-mass spectrometry (LC-MS). Nucleotide levels were measured in µg/ml and corrected for protein concentration. Purine/pyrimidine ratio was calculated by dividing (AMP+GMP) by (UMP+CMP) relative concentrations. C) ASS1 inhibition decreases the purine/pyrimidine ration under glucose deprivation. 4T1 cells were grown in the presence or absence of glucose for 48 h and analysed as in 1B. […] Cells were grown and treated as in 5B. […] 4T1 cells were grown either with or without 300 µM mizoribine for 24 h. Nucleotide levels were measured by LC-MS. […] Each experiment was conducted with biological and technical replicates and repeated at least three times. […] Nucleotide levels were measured as described below by LC-MS. Purine/pyrimidine ratio was calculated by dividing (AMP+GMP+ATP+GTP) concentration by (UMP+CMP+TMP+UTP+CTP+TTP) concentration before and after methotrexate. […]
# 4T1 cells treated as outlined above were followed by lysis and DNA isolation using DNeasy blood and tissue kit (Quiagen). […] Purine to pyrimidine (R>Y) and pyrimidine to purine (Y>R) mutations on the sense strand were counted and pooled per condition to achieve sufficient values for statistical analysis. […]
structure (smiles),measurement,setting,value
"NC(=O)c1ncn([C@@H]2O[C@H](CO)[C@@H](O)[C@H]2O)c1O [Mizoribine, mizoribine]",immunoproteasome LMP-7 expression,LMP-7 immunoproteasome,higher immunoproteasome LMP-7 expression
same,mutational bias by DNA sequencing analysis,4T1 breast cancer cells,pyrimidine mutational bias
